The subject of data set [1] is MCT8 mutant (mct8−/−) zebrafish. Conditions: cited from earlier work.
The test system of data set [2] is pediatric patient suffering from Allan-Herndon-Dudley Syndrome. The experiment in a line: Dosing regimen for a pediatric subject, T3 serum levels. In kind it is in vivo, human. Here is the method:
Following the first 2 weeks, the daily dosage was increased to 2 mg/kg/day for 2 additional weeks. […] Following the first 2 weeks, the daily dosage was increased to 2 mg/kg/day for 2 additional weeks. […] Following the first 2 weeks, the daily dosage was increased to 2 mg/kg/day for 2 additional weeks.

The test system of data set [3] is MCT8-deficient (knockout) mice (Mct8KO). Particulars: cited from earlier work.
For data set [4] the following is noted: ambient temperature and light; cited from earlier work.
Another data set relates to child having a G-tube. The experiment in a line: Effect of DITPA on removal of G-tube. In kind it is in vivo, human. Conditions: one child who started DITPA while having a G-tube.
A further data set concerns pediatric subjects. Conditions: human, in vivo; cited from earlier work.

These results are taken from patent US20240009157A1 (PriZm, LLC, priority 2022, published 2024).

As for `O=C(O)CCc1cc(I)c(Oc2ccc(O)cc2)c(I)c1` [DITPA, 3,5-diiodothyropropionic acid], the “hypomyelination in the CNS” value in data set [1] was “SRW101 and other TH analogs partially rescued the hypomyelination”. For the same compound, in data set [2] (1 mg/kg/day for 2 weeks, then 2 mg/kg/day for 2 additional weeks, above normal), the “T3 serum levels above normal” value was “more than 15%”. In addition, the “T3 serum levels below normal” value in data set [2] (1 mg/kg/day for 2 weeks, then 2 mg/kg/day for 2 additional weeks, below normal) is “more than 15%”. Moreover, the “T3 serum levels upon reassessment” value in data set [2] (after 1.0 mg/kg/day for 28 days) is listed as “normal”. In addition, the “T3 serum levels upon reassessment” value in data set [2] (after 1.5 mg/kg/day for 28 days) is given as “normal”. In data set [2] (after 1.5 mg/kg/day for 28 days, below normal), the “T3 serum levels upon reassessment, below normal” value is on record as “more than 15%”. The “T3 serum levels upon reassessment” value in data set [2] (after 2.5 mg/kg/day for 28 days) was “normal”. In data set [3], the “MCT8 dependence of entry into the brain” value was “independent for entry into the brain”; the TH deficit result is given as “corrects the TH deficit”; the “measurements and other parameters of TH action” value is “showed that SRW101 normalized all measurements and other”; the “thyrotoxic effect in the liver” value is on record as “Mct8KO mice without causing thyrotoxic effect in the liver (Di”. The “thyrotoxic state in the liver (analysis of TH target genes)” value in data set [3] is “amelioration of the thyrotoxic state in the liver (ameliorating”. Besides, in data set [4], the stability entry was “stable at ambient temperature and light”. Moreover, in the data set on child having a G-tube, the G-tube entry is “g-tube was removed” and the body weight entry is on record as “gained weight”.
As to `O=C(O)Cc1cc(I)c(Oc2ccc(O)c(I)c2)c(I)c1` [TRIAC, triiodothyroacetic acid], the “effects in pediatric subjects” value with pediatric subjects was “subjects with positive effects”.
